Measurements as given in patent US9434743B2, “Indazole derivatives” (TAKEDA PHARMACEUTICAL COMPANY LIMITED, priority 2012, dated 2016).

Assays:
human MetAP2 enzyme [1] = target: T1, human MetAP2 enzyme (Homo sapiens, UniProt P50579); assay: MetAP2 enzyme assay, enzyme complexed with cobalt ions; settings: MetAP2 Co pIC50, MetAP2 enzyme complexed with cobalt ions; Met-AMC substrate at Km
Procedure: DNA encoding the full-length sequence of human MetAP2 enzyme is amplified by PCR and cloned into a pFastBac expression vector (Invitrogen). Recombinant baculovirus incorporating the MetAP2 construct is generated by transposition using the Bac-to-Bac system (Invitrogen). The expression of recombinant protein is carried out by infection of Spodoptera frugiperda Sf9 cells (Invitrogen) in 5 L Wave Bioreactors (Wave Biotech). Recombinant protein is isolated from cellular extracts by binding to an SP Hitrap Fast Flow or SP Sepharose (Sigma) column, and the protein is eluted using a NaCl gradient. Partially purified extracts of MetAP2 are further purified by an AKTA FPLC over a Superdex-200 column (GE). The purity of MetAP2 protein is determined on denaturing SDS-PAGE gel.
The results for each well are expressed as percent inhibition and calculated using the equation:

human MetAP2 enzyme [2] = target: T1, human MetAP2 enzyme; assay: MetAP2 enzyme assay, enzyme complexed with manganese ions; settings: MetAP2 Mn pIC50, MetAP2 enzyme complexed with manganese ions; Met-AMC substrate at Km

T1 sequence (P50579 whole entry): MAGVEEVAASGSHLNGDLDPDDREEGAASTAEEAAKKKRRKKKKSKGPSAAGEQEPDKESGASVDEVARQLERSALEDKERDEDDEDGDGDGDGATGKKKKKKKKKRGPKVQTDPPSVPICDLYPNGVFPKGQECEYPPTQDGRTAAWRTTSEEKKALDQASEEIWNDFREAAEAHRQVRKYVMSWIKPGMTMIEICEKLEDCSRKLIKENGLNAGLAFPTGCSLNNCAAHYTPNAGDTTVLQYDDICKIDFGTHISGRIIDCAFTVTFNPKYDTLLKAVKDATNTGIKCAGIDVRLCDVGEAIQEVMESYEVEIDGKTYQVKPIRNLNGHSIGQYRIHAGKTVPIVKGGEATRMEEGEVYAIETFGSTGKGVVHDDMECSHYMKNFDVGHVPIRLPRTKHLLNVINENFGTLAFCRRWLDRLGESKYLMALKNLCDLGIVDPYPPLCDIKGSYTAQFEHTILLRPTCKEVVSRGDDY

Row | Compound | IC50 (human MetAP2 enzyme [1]) | IC50 (human MetAP2 enzyme [2])
1 | O=S(=O)(c1ccc(-c2cc(C(F)(F)F)cc3[nH]ncc23)cc1)N1CCOCC1 [Example 225, 4-(4-(6-(trifluoromethyl)-1H-indazol-4-yl)phenylsulfonyl)morpholine] | 100 nM | 7.94 nM
2 | O=S(=O)(CCO)c1ccccc1-c1cc(C(F)(F)F)cc2[nH]ncc12 [Example 182, 2-(2-(6-(trifluoromethyl)-1H-indazol-4-yl)phenylsulfonyl)ethanol] | 794 nM | 25.1 nM
3 | CN1CCN(C(=O)c2cncc(-c3cc(C(F)(F)F)cc4[nH]ncc34)c2)CC1 [Example 287, (4-methylpiperazin-1-yl)(5-(6-(trifluoromethyl)-1H-indazol-4-yl)pyridin-3-yl)methanone] | 63.1 nM | 3.98 nM
4 | COC(=O)c1ccc(-c2cc(C(F)(F)F)cc3[nH]ncc23)cn1 [Example 269, methyl 5-(6-(trifluoromethyl)-1H-indazol-4-yl)picolinate] | 63.1 nM | 3.98 nM
5 | FC(F)(F)c1cc(-c2cc[nH]n2)c2cn[nH]c2c1 [Example 13, 4-(1H-pyrazol-3-yl)-6-(trifluoromethyl)-1H-indazole] | 398 nM | 10 nM
6 | Cc1cc2cncn2cc1-c1cc(C(F)(F)F)cc2[nH]ncc12 [Example 388, 4-(7-methylimidazo[1,5-a]pyridin-6-yl)-6-(trifluoromethyl)-1H-indazole] | 63.1 nM | 7.94 nM
7 | NS(=O)(=O)c1ccc(-c2cc(C(F)(F)F)cc3[nH]ncc23)c(F)c1 [Example 342, 3-fluoro-4-(6-(trifluoromethyl)-1H-indazol-4-yl)benzenesulfonamide] | 39.8 nM | 6.31 nM
8 | Cc1nc(N2CCCC2)ccc1-c1cc(C(F)(F)F)cc2[nH]ncc12 [Example 384, 4-(2-methyl-6-(pyrrolidin-1-yl)pyridin-3-yl)-6-(trifluoromethyl)-1H-indazole] | 79.4 nM | 15.8 nM
9 | CN(C)CCn1c(=O)c(-c2cc(C(F)(F)F)cc3[nH]ncc23)cn(C)c1=O [Example 319, 3-(2-(dimethylamino)ethyl)-1-methyl-5-(6-(trifluoromethyl)-1H-indazol-4-yl)pyrimidine-2,4(1H,3H)-dione] | 1260 nM | 39.8 nM
10 | CS(=O)(=O)c1cccc(-c2cc(C(F)(F)F)cc3[nH]ncc23)c1 [Example 103, 4-(3-(methylsulfonyl)phenyl)-6-(trifluoromethyl)-1H-indazole] | 50.1 nM | 6.31 nM
11 | FC(F)(F)c1cc(-c2c[nH]c3nccnc23)c2cn[nH]c2c1 [Example 157, 7-(6-(trifluoromethyl)-1H-indazol-4-yl)-5H-pyrrolo[2,3-b]pyrazine] | 251 nM | 12.6 nM
12 | FC(F)(F)c1cc(-c2ccncc2)c2cn[nH]c2c1 [Example 14, 4-(pyridin-4-yl)-6-(trifluoromethyl)-1H-indazole] | 100 nM | 10 nM
13 | FC(F)(F)c1cc(-c2cnc(N3CCCC3)nc2)c2cn[nH]c2c1 [Example 116, 4-(2-(pyrrolidin-1-yl)pyrimidin-5-yl)-6-(trifluoromethyl)-1H-indazole] | 39.8 nM | 7.94 nM
14 | FC(F)(F)c1cc(-c2cnn(Cc3cccnc3)c2)c2cn[nH]c2c1 [Example 96, 4-(1-(pyridin-3-ylmethyl)-1H-pyrazol-4-yl)-6-(trifluoromethyl)-1H-indazole] | 39.8 nM | 5.01 nM
15 | FC(F)(F)c1cc(-c2cncc3ccccc23)c2cn[nH]c2c1 [Example 111, 4-(6-(trifluoromethyl)-1H-indazol-4-yl)isoquinoline] | 50.1 nM | 15.8 nM
16 | CN1C(=O)Cc2cc(-c3cc(C(F)(F)F)cc4[nH]ncc34)ccc21 [Example 234, 1-methyl-5-(6-(trifluoromethyl)-1H-indazol-4-yl)indolin-2-one] | 20 nM | 3.98 nM
